Source: patent publication US10035790B2, “RORγ modulators” (BRISTOL-MYERS SQUIBB COMPANY, priority 2012, dated 2018)

Molecular target: T1, ligand binding domain of human RORγ (A262-S507) (Homo sapiens, UniProt P51449)
T1 construct: made in house; host or cells: E. coli
T1 sequence (P51449 262-507): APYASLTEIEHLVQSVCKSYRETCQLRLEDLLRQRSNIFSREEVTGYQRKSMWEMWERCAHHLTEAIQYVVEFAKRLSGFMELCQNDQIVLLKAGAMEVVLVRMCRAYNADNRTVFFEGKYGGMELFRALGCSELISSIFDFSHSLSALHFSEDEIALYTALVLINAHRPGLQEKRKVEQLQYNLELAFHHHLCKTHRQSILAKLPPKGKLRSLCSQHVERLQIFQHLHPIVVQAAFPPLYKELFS
Experiment: General RORγ SPA binding assay (competition with [3H]25-hydroxycholesterol)
Details: RORγ SPA binding assay, inhibition of [3H]25-hydroxycholesterol binding; read-out: IC50
How it was run: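 N-terminally His-tagged protein was expressed in E. coli and nickel-purified. Then 50 nM protein was preincubated with compound for 15 min at room temperature in PBS with 0.5% fatty acid free BSA, followed by radioligand for 15 min and copper His-tag SPA beads for 30 min. IC50 came from percent inhibition of binding.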

| IC50 [nM] | Compound |
| --- | --- |
| 16.2 | Cc1ncc(C(F)(F)CNc2ccnc(C(F)(F)F)n2)c(C2CCN(C(=O)Nc3c(F)cccc3F)CC2)n1 [Compound N18, N-(2,6-Difluorophenyl)-4-[5-(1,1-difluoro-2-{[2-(trifluoromethyl)pyrimidin-4-yl]amino}ethyl)-2-methylpyrimidin-4-yl]piperidine-1-carboxamide] |
| 52.9 | Cc1ncc(C(C)(O)Cc2cccc(C(F)(F)F)n2)c(C2CCN(C(=O)Nc3c(F)cccc3F)CC2)n1 (centres unmarked) [Compound D47, N-(2,6-Difluorophenyl)-4-(5-{1-hydroxy-1-methyl-2-[6-(trifluoromethyl)pyridin-2-yl]ethyl}-2-methylpyrimidin-4-yl)piperidine-1-carboxamide] |
| 1030 | CC(C)c1ncc(C(=O)NCc2ccc(Cl)c(Cl)c2)c(C2CCN(C(=O)Cc3c(F)cccc3F)CC2)n1 [Compound A28, N-(3,4-dichlorobenzyl)-4-(1-(2-(2,6-difluorophenyl)acetyl)piperidin-4-yl)-2-isopropylpyrimidine-5-carboxamide] |
| 6.8 | Cc1ncc(C(=O)NCc2cc(Cl)nc(Cl)c2)c(C2CCN(C(=O)Cc3c(F)cccc3F)CC2)n1 [Compound A49, N-((2,6-dichloropyridin-4-yl)methyl)-4-(1-(2-(2,6-difluorophenyl)acetyl)piperidin-4-yl)-2-methylpyrimidine-5-carboxamide] |
| 43.8 | CSc1ncc(C(=O)NCc2ccc(Cl)c(Cl)c2)c(C2CCN(C(=O)Cc3c(F)cccc3F)CC2)n1 [Compound A85, N-(3,4-dichlorobenzyl)-4-(1-(2-(2,6-difluorophenyl)acetyl)piperidin-4-yl)-2-(methylthio)pyrimidine-5-carboxamide] |
| 1090 | Cc1cc(C)cc(CNC(=O)c2cnc(C)nc2C2CCN(C(=O)Cc3ccc(F)cc3)CC2)c1 [Compound A29, N-(3,5-dimethylbenzyl)-4-(1-(2-(4-fluorophenyl)acetyl)piperidin-4-yl)-2-methylpyrimidine-5-carboxamide] |
| 80.6 | Cc1nc(C)c(-c2nnc(-c3ccnc(C(F)(F)F)n3)o2)c(C2CCN(C(=S)Nc3ccccc3C(F)(F)F)CC2)n1 [Compound C47, 4-(2,6-Dimethyl-5-{5-[2-(trifluoromethyl)pyrimidin-4-yl]-1,3,4-oxadiazol-2-yl}pyrimidin-4-yl)-N-[2-(trifluoromethyl)phenyl]piperidine-1-carbothioamide] |
| 134 | CC(=O)N1CCC(NCC(O)(COc2cccc(C(F)(F)F)n2)c2cnc(C)nc2C2CCN(C(=O)Nc3c(F)cccc3F)CC2)C1 (centres unmarked) [Compound N40, 4-(5-{2-[(1-Acetylpyrrolidin-3-yl)amino]-1-hydroxy-1-({[6-(trifluoromethyl)pyridin-2-yl]oxy}methyl)ethyl}-2-methylpyrimidin-4-yl)-N-(2,6-difluorophenyl)piperidine-1-carboxamide] |
| 25.4 | CC(C)Nc1ncc(C(=O)NCc2cccc(Cl)c2)c(C2CCN(C(=O)Cc3c(F)cccc3F)CC2)n1 [Compound A94, N-(3-chlorobenzyl)-4-(1-(2-(2,6-difluorophenyl)acetyl)piperidin-4-yl)-2-(isopropylamino)pyrimidine-5-carboxamide] |
| 3.2 | Cc1nc(C)c(-c2nnc(-c3ccnc(C(F)(F)F)n3)o2)c(C2CCN(C(=O)C(F)(F)c3ccccc3F)CC2)n1 [Compound C44, 4-{1-[Difluoro(2-fluorophenyl)acetyl]piperidin-4-yl}-2,6-dimethyl-5-{5-[2-(trifluoromethyl)pyrimidin-4-yl]-1,3,4-oxadiazol-2-yl}pyrimidine] |
| 15.8 | CNc1ncc(C(C)(O)COc2ccnc(C(F)(F)F)n2)c(C2CCN(C(=O)Nc3c(F)cccc3F)CC2)n1 (centres unmarked) [Compound D36, N-(2,6-Difluorophenyl)-4-[5-(1-hydroxy-1-methyl-2-{[2-(trifluoromethyl)pyrimidin-4-yl]oxy}ethyl)-2-(methylamino)pyrimidin-4-yl]piperidine-1-carboxamide] |
| 3.3 | Cc1ncc(C(C)(C)CNc2cccc(C(F)(F)F)n2)c(C2CCN(C(=O)Cc3c(F)cccc3F)CC2)n1 [Compound F3, N-[2-(4-{1-[(2,6-difluorophenyl)acetyl]piperidin-4-yl}-2-methylpyrimidin-5-yl)-2-methylpropyl]-6-(trifluoromethyl)pyridin-2-amine] |
| 4090 | CSc1ncc(/C(C)=N/Oc2ccnc(Cl)c2)c(C2CCN(C(=O)Nc3c(F)cccc3F)CC2)n1 [Compound B58, 4-[5-{(1E)-N-[(2-Chloropyridin-4-yl)oxy]ethanimidoyl}-2-(methylthio)pyrimidin-4-yl]-N-(2,6-difluorophenyl)piperidine-1-carboxamide] |
| 4.8 | C/C(=N\Oc1ccnc(C(F)(F)F)c1)c1cnc(C)nc1C1CCN(C(=O)Cc2c(F)cccc2F)CC1 [Compound B14, (E)-2-(2,6-difluorophenyl)-1-(4-(2-methyl-5-(1-(((2-(trifluoromethyl)pyridin-4-yl)oxy)imino)ethyl)pyrimidin-4-yl)piperidin-1-yl)ethanone] |
| 15.8 | C/C(=N\Oc1ccnc(C(F)(F)F)n1)c1cnc(C)nc1C1CCN(C(=O)Cc2c(F)cccc2F)CC1 [Compound B20, (E)-2-(2,6-difluorophenyl)-1-(4-(2-methyl-5-(1-(((2-(trifluoromethyl)pyrimidin-4-yl)oxy)imino)ethyl)pyrimidin-4-yl)piperidin-1-yl)ethanone] |
| 8.4 | Cc1ncc(/C(CO)=N/Oc2ccnc(C(F)(F)F)c2)c(C2CCN(C(=O)Cc3c(F)cccc3F)CC2)n1 [Compound B23, (1Z)-1-(4-{1-[(2,6-Difluorophenyl)acetyl]piperidin-4-yl}-2-methylpyrimidin-5-yl)-2-hydroxyethanone O-[2-(trifluoromethyl)pyridin-4-yl]oxime] |
| 36.9 | CC(=O)NCC(O)(COc1cccc(C(F)(F)F)n1)c1cnc(C)nc1C1CCN(C(=O)Nc2c(F)cccc2F)CC1 (centres unmarked) [Compound N37, 4-{5-[2-(Acetylamino)-1-hydroxy-1-({[6-(trifluoromethyl)pyridin-2-yl]oxy}methyl)ethyl]-2-methylpyrimidin-4-yl}-N-(2,6-difluorophenyl)piperidine-1-carboxamide] |
| 3.6 | CC(O)(COc1cccc(C(F)(F)F)n1)c1cnc(N)nc1C1CCN(C(=O)Nc2c(F)cccc2F)CC1 (centres unmarked) [Compound D27, 4-[2-Amino-5-(1-hydroxy-1-methyl-2-{[6-(trifluoromethyl)pyridin-2-yl]oxy}ethyl)pyrimidin-4-yl]-N-(2,6-difluorophenyl)piperidine-1-carboxamide] |

| Compound | IC50 [nM] |
| --- | --- |
| Cc1nc(C)c(-c2nnc(-c3ccnc(C(F)(F)F)n3)o2)c(C2CCN(C(=O)Oc3ccccc3Cl)CC2)n1 [Compound C45, 2-Chlorophenyl 4-(2,6-dimethyl-5-{5-[2-(trifluoromethyl)pyrimidin-4-yl]-1,3,4-oxadiazol-2-yl}pyrimidin-4-yl)piperidine-1-carboxylate] | 42.8 |
| Cc1nc(N)nc(C2CCN(C(=O)Oc3ccccc3Cl)CC2)c1-c1nnc(-c2ccnc(C(F)(F)F)n2)o1 [Compound C51, 2-Chlorophenyl 4-(2-amino-6-methyl-5-{5-[2-(trifluoromethyl)pyrimidin-4-yl]-1,3,4-oxadiazol-2-yl}pyrimidin-4-yl)piperidine-1-carboxylate] | 10.5 |
